Here are results for one molecule from patent US10682311B2, “Intranasal dexmedetomidine compositions and methods of use thereof” (BAUDAX BIO, INC., priority 2011, dated 2020).

A short description of the series: clinical. Conditions: human, in vivo, 35 ug. The text has this: This was a Phase 1, open-label, two period, repeated dose study in healthy subjects to investigate the safety, tolerability, and pharmacokinetics of intranasal dexmedetomidine. A total of 12 subjects (6 male and 6 female) were planned and enrolled. Healthy subjects between the ages of 18 and 50 years, inclusive, were screened for participation at one study site in the United States within 28 days before study drug administration. Medical history, physical examination, baseline laboratory testing, 12 lead electrocardiogram (ECG), pregnancy testing, vital sign measurements, and informed consent were completed during the screening visit.
During Period 1, subjects received two doses of study medication, separated by six hours. During Period 2, study participants received seven doses of study medication administered at six hour intervals. Study Periods were separated by not less than 24 hours between the last dose in Period 1 and the first dose in Period 2.
Serial blood samples were collected at defined intervals during each study period in order to evaluate the pharmacokinetic properties of intranasally administered dexmedetomidine, and its metabolite. Whole blood was collected in 6 mL evacuated collection tubes treated with K2EDTA.
Plasma samples were to be collected within ±2 minutes of the scheduled post-dose time through 60 minutes after dosing, samples collected 75 minutes to 6 hours after dosing were able to be collected within ±5 minutes, and samples collected at and beyond 12 hours after dosing were able to be collected within ±15 minutes of scheduled post-dose time. Actual times were to be recorded for all events, and any deviation outside the specified ranges were required to be clearly documented in the subject's study records.
Immediately after the collection of each sample, the collection tube was to be gently inverted and then placed in wet ice. Within 30 minutes of withdrawal, the tubes were centrifuged at about 2,000×gravity for 10-15 minutes to separate the cells from the plasma. No aids for separation were to be used. Two aliquots (≥0.5 mL each) of plasma were transferred from each sample with clean pipettes and placed in 2 polypropylene storage tubes in equal volumes. The storage tubes were labeled with the following information: protocol number, subject number, study day and relative time of sample (e.g., Period 1, Dose 1, 10 Minutes after dosing), and biologic matrix to be analyzed (e.g., plasma). Within 60 minutes of the collection time, the storage tubes were to be placed into a freezer at −20° C. or below; they remained in the freezer until shipment for analysis.
For pharmacokinetic analyses in Period 1, up to 12 blood samples were collected from each subject prior to and following administration of each study dose. These were collected at predose (Time 0) and at the following approximate times after each dose of study medication: 10, 20, 30, 45, 60, and 90 minutes and 2 and 4 hours; additional blood samples were collected at 6, 12 and 18 hours after Dose 2. In Period 2, up to 13 blood samples were collected from each subject prior to and following administration of Dose 1 and Dose 7. These were collected at predose (Time 0) and at the following approximate times after dosing with study medication: 10, 20, 30, 45, 60, and 90 minutes and 2 and 4 hours; additional blood samples were collected at 6, 12, 18 and 24 hours after Dose 7. Blood samples for Dose 2 through Dose 6 were collected at predose (Time 0) only. […]

As for `Cc1cccc([C@H](C)c2cnc[nH]2)c1C` [Dexmedetomidine, 5-[(1S)-1-(2,3-dimethylphenyl)ethyl]-1H-imidazole], the AUC(0-t) reads like this: (both, AUC0-6) 0.39 ng·h/mL; (both, AUClast) 0.38 ng·h/mL. The molecule also showed a Cmax (both, Cmax) of 0.09 ng/mL. Moreover, the Tmax (both, Tmax) was 1.26 h. Moreover, for the setting “inhaled or intranasal”, the “accumulation (AUC for Dose 1 compared to Dose 7)” value is on record as “little evidence of accumulation”.
